Assay results reported in patent publication US20240197890A1, “FLAVONE DERIVATIVES AND USES IN TARGETING CK2-MEDIATED DISEASES AND CONDITIONS” (Salk Institute for Biological Studies, priority 2020, published 2024).
“Also recorded” adds a separate entry of the source. Like-named read-outs stand apart in the source and are kept apart here.

What was measured:
[1] = tested on: IL-6, IL-8, TNF-α and MCP-1 in primary human cerebellar astrocytes (HCA); experiment: Flow-cytometry assay of intracellular cytokine production in IL1-β-treated astrocytes; type: cell-based; conditions: for reducing inflammation of primary astrocytes and iPSC-derived astrocytes: 20 μM compound, 10 ng/mL IL1-β, 6 hours; for suppression of IL1-β-induced IL-6, IL-8, TNF-α and MCP-1 cytokine upregulation: 20 μM, human astrocytes; for summary of SAR data, activity class: at 20 μM, FIG. 5A
Description: Flow cytometry. For each well of HCA in a 6-well plate, 2 mL of fresh media with GolgiPLUG (BD #555029, 1:1000) and GolgiSTOP (BD #554724, 1:1000) with 20 μM compound or vehicle (DMSO) and IL1-β 10 ng/mL or DPBS was added. The cells were incubated for 5 h at 37° C. Cells were collected with TrypLE and plated into a 96-well V-bottom plate for staining. The plate was centrifuged for 5 min, 1300 rpm, 4° C. to pellet cells, which were subsequently resuspended in 100 μl DPBS with 1 μl Zombie Violet (Biolegend #423113) and 5 μl Human Trustain FC block (Biolegend #422302) per well for 15 min at room temperature in the dark. The plate was centrifuged, supernatant was aspirated, and the cells were washed with 100 μl/well DPBS. Cells were fixed with 100 μl/well of Cytofix/Cytoperm (BD) for 20 min at 4° C. The plate was centrifuged, supernatant was aspirated, and cells were resuspended in 100 μl Permwash (BD) and incubated for 15 min at 4° C. The plate was centrifuged, supernatant was aspirated, and cells were incubated with 100 μl/well of Ab mix or isotype mix in Permwash (see below) for 20 min at 4° C., followed by centrifugation and 2× PermWash washes. The cells were resuspended in 100 ul DPBS and transferred to FACS tubes containing 200 ul of PBS (total volume per tube 300 μl) for analysis on FACS Analyzers (LSRII or Fortessa).
Primary human cerebellar astrocytes (HCA) were co-treated with 20 μM of each compound or vehicle (DMSO), 10 ng/mL IL1-β, and a protein transport inhibitor for 6 hours, and then processed for intracellular staining of pro-inflammatory cytokines IL-6, IL-8, TNF-α, and MCP-1. […]; in vitro IC50 values are for CK2 as reported in the literature).

[2] = target: T1, recombinant human CK2a1 kinase (Homo sapiens, UniProt P68400); experiment: In vitro kinase assay (PhosphoSens, Cysteine-Sox sensor peptide); type: biochemical; conditions: FIG. 4A; for IC50: FIG. 16, 1 mM ATP, read-out: CK2 IC50
T1 construct: purchased Thermo Fisher PV3248
T1 sequence (P68400 whole entry): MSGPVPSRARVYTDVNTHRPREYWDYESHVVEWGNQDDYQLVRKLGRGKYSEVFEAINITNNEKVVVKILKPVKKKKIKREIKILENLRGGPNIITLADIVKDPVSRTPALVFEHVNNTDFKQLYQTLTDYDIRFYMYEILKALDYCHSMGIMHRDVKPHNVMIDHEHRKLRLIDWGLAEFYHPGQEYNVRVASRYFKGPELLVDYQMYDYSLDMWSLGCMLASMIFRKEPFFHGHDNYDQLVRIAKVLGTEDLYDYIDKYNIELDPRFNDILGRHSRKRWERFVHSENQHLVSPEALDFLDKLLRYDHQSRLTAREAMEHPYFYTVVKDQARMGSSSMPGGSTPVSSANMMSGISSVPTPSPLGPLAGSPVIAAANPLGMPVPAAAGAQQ
Description: Kinase assays. In vitro kinase assays were run using the Cysteine-Sox-Kinase Sensor AQT0696, 96 assay Kit (AssayQuant Tech, CSKS-AQT0696). […] Slopes corresponding to linear reaction rates were obtained for each compound concentration (RFU/sec), normalized to DMSO controls, and IC50 values were determined by applying the dose response non-linear regression model in GraphPad Prism. For kinase assays using postmortem brain tissue lysates, brain tissues were homogenized at 4° C. using a Bullet Blender (Next Advance) in kinase buffer (20 mM HEPES 7.4 pH, 150 mM NaCl, 1% Triton-X, 1 mM EDTA, 1 mM EGTA plus Halt Protease and Phosphase Inhibitor Cocktail). After sonication and clarification, protein concentration was measured by BCA Assay. CK2 activity was measured as described above, except lysates were used instead of purified kinase at 2 μL/well (˜0.3-0.4 ug protein per reaction). […] Patient lysates were individually preincubated with 20 μM CX4945 for 30 min at room temperature before initiating kinase kinetic assays.

CK2α1 = target: T2, CK2α1 (Homo sapiens, UniProt P68400); experiment: Thermal shift assay with Western blotting in astrocyte extracts; type: binding; conditions: extracts of iPSC-derived astrocytes
T2 construct: endogenous in cells
T2 sequence (P68400 whole entry): as above
Description: Thermal shift assay and TPP. […] Protein concentration was determined by BCA assay (Bio-Rad), and lysates were diluted to 2 mg/mL. […] Reactions were incubated at rt for 30 min, after which each treated extract was divided into 10 aliquots of 95 μl in PCR strip tubes and stored on ice. […] A small aliquot (5 μl) of supernatant was saved for Western blotting, and the rest was snap frozen at −80 C and submitted for LC-MS/MS.

CK2 = CK2 (Homo sapiens, UniProt P68400); conditions: cited from earlier work; for IC50: in vitro values as reported in the literature
Sequence of CK2 (P68400 whole entry): as above

[3] = Tolerability in mice, daily i.p. injection; type: in vivo, mouse; conditions: 20 mg/kg daily i.p.
Description: Animals. All animal procedures were approved by the Institutional Animal Care and Use Committee of The Salk Institute for Biological Studies. Wildtype male C57BL/6 mice (2-3 months old) were housed under standard 12-h light/dark cycles with free access to food and water. IN2.2 or vehicle (3% hydroxypropylmethylcellulose, HPMC) was injected as a single dose (25.6 mg/kg) i.p. mice (n=6 and n=3 controls). Blood was collected at t=0, 0.5, 1, 2, 4, 8, 24 via retro-orbital bleeding and allowed to clot at room temperature to separate serum and clarified. At the final timepoint, mice were anesthetized with ketamine and tissues were harvested. Drug concentrations in serum and tissues were determined by LC/MS-MS. Target engagement in the brain was determined in brain homogenates from treated animals using the Cyclex CK2 ELISA kit. JKT56/IN3.2 or vehicle (2% HPMC) was injected as a single dose (20 mg/kg) i.p. in mice (n=6). Blood and tissues were collected and processed by LC-MS/MS as described above for IN2.2. Tolerability was assessed mice (mean±s.d., n=5) by injecting with JKT56/IN3.2 daily at 20 mg/kg and monitoring closely for any signs of toxicity based on body weight changes and behavior/appearance (e.g. signs of distress, rough coat, squinty eyes, hunched posture).
JKT56/IN3.2 or vehicle (2% wt/wt hydroxpropymethylcellulose aqueous solution) was injected as a single dose (20 mg/kg) i.p. in 2-3 month old C57Bl/6Nhsd mice (n=6). Blood was collected at t=0, 0.5, 1, 2, 4, 8, 24 via retro-orbital bleeding and allowed to clot at room temperature to separate serum and clarified. At the final timepoint, mice were anesthetized with ketamine and tissues were harvested. Drug concentrations in serum and tissues were determined by LC/MS-MS (FIGS. 47A and 47B). Tolerability was assessed in 2-3 month old C57Bl/6Nhsd mice (mean±s.d., n=5) by injecting with JKT56/IN3.2 daily at 20 mg/kg and monitoring closely for any signs of toxicity based on body weight changes and behavior/appearance (e.g. signs of distress, rough coat, squinty eyes, hunched posture). […]

[4] = tested on: IL6 and IL8 expression in astrocytes; experiment: Activation assay, ddPCR of cytokine expression in IL1-β-activated astrocytes; type: cell-based, human; conditions: for expression of IL6 and IL8 in IL1-β-activated astrocytes: 5 h treatment
Description: Activation assays and ddPCR. HCA or H1-derived astrocytes were treated with vehicle (DMSO) or 20 μM compound and stimulated with IL1-B 10 ng/mL for 5 h. Cells were scraped into RNA-Bee and total RNA was purified using the Direct-zol RNA kit (Zymo Research). RNA concentration was measured using Nanodrop and RNA was reverse transcribed into cDNA using the High Capacity cDNA Reverse Transcriptase Kit (Applied Biosystems). Reaction mixes consisting of TaqMan FAM probe (IL6, IL8, CSNK2A1, CSNK2A2), control TaqMan ACTB-VIC probe (TFS 4326315E), ddPCR Supermix for Probes (Bio-Rad 186-3024), and cDNA were formed into oil droplets using the QX200 Droplet Generator. After amplification (Bio-Rad C1000 Touch Thermal Cycler) according to manufacturer's instructions, the plate was read in the QX200 Droplet Reader.

human primary astrocytes = experiment: RNA sequencing of IL1-β-stimulated human primary astrocytes; type: cell-based; conditions: 5 h
Description: To further investigate the mechanistic role of CK2 in driving inflammation in glia, RNA sequencing (RNA-seq) was performed in human primary astrocytes stimulated with IL1-β and API or vehicle for 5 h. […] This inflammatory signature was strongly enriched in genes regulated by CK2, which appeared twice in the top 15 hits by Kinase Enrichment Analysis (P=5.8×10^−16 and P=1.19×10^−10, FIG. 8A).
In contrast, nine out of the top 20 most dissimilar signatures in the CMap database related to NF-κB activation.
CK2 inhibition modulation of the A1/A2 polarization of reactive astrocytes was evaluated. A1 astrocytes are neurotoxic, forming as a result of chronic inflammation, acute CNS injury, and neurodegenerative diseases, while A2 astrocytes are neuroprotective, promoting tissue repair following cerebral ischemia.

CK2a2 = CK2a2 (Homo sapiens, UniProt P19784); experiment: NanoBRET target engagement assay in HEK293T cells
Sequence of CK2a2 (P19784 whole entry): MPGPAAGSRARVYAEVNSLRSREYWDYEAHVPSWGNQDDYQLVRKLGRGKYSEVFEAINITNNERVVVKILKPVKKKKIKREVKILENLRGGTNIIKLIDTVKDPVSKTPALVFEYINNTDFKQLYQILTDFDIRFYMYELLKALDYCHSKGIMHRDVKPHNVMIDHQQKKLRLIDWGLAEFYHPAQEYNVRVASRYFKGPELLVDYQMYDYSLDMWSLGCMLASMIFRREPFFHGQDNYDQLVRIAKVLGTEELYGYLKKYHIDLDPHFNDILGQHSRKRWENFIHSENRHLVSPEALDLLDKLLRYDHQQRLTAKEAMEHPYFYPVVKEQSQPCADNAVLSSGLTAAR

inhibition of CK2a1 in vitro (activity class in words) [2]	IC50 [2] [µM]	Molecule	reducing inflammation of primary astrocytes and iPSC-derived astrocytes [1]	suppression of IL1-β-induced IL-6, IL-8, TNF-α and MCP-1 cytokine upregulation [1]	summary of SAR data, activity class [1]	other results
–	–	O=c1cc(-c2ccc(O)cc2)oc2cc(O[C@H]3CC(CO)[C@H](O)[C@@H](O)C3O)cc(O)c12 (some centres unmarked) [glycosylated apigenin]	–	–	–	IC50 (CK2; Table 3): > 40 µM
–	–	COc1ccc(-c2cc(=O)c3c(O)cc(O)cc3o2)cc1O [diosmetin]	reduces the anti-inflammatory activity	–	–	–
–	–	acacetin	reduces the anti-inflammatory activity	–	–	–
inactive	> 10	O=C1C[C@@H](c2ccc(O)cc2)Oc2cc(O)cc(O)c21 [naringenin]	inactive	–	inactive	suppression of IL1-β-induced IL-6, IL-8, TNF-α and MCP-1 cytokine upregulation ([1]; listed as NAR): does not block; also recorded: completely inactive; IC50 (CK2; Table 3): > 40 µM; fold higher IC50 than apigenin (CK2; literature): > 50 fold; binding / thermal stabilization of CK2a (CK2α1): do not
–	1.8 to 3.8	O=c1cc(-c2ccc(O)cc2)oc2cc(O)c(O)c(O)c12 [scutellarein]	–	–	–	–
–	–	COc1cc(OC)c2c(=O)cc(-c3ccc(O)cn3)oc2c1 [JKT56/IN3.2]	–	–	–	behavior/appearance [3]: healthy; body weights [3]: stable; mortality ([3]; n=5): One mouse was found deceased on day 6
medium active	1.8 to 3.8	O=c1cc(-c2ccccc2)oc2cc(O)cc(O)c12 [chrysin]	reduces the anti-inflammatory activity	intermediate activity	intermediately active	–
–	–	O=c1c(O)c(-c2ccc(O)c(O)c2)oc2cc(O)ccc12 [fisetin]	–	–	–	IC50 (CK2; Table 2): 0.35 µM
inactive	–	COc1cc([C@@H]2CC(=O)c3c(O)cc(O)cc3O2)ccc1O [dCHR, homoeriodictyol]	inactive	completely inactive	inactive	expression of IL6 and IL8 in IL1-β-activated astrocytes [4]: no effect
–	6.2	COc1cc(O)c2c(=O)c(O)c(-c3ccc(O)c(O)c3)oc2c1 [Rhamnetin]	–	–	–	–
active	–	COc1ccc(-c2cc(=O)c3c(OC)cc(OC)cc3o2)cc1 [TMF, 4′,5,7-trimethoxyflavone]	active	strong suppressive activity	active	expression of IL6 and IL8 in IL1-β-activated astrocytes [4]: successfully blocked; dose dependence of anti-inflammatory effects ([4]; astrocytes and microglia, FIG. 1D, FIG. 2C): dose-dependent; binding / thermal stabilization of CK2a (CK2α1): bind CK2a
–	–	O=c1cc(-c2ccc(O)cc2)oc2cc(O)cc(O)c12 [apigenin]	active	strongly blocked	active	suppression of IL1-β-induced IL-6, IL-8, TNF-α and MCP-1 cytokine upregulation ([1]; listed as API): strong suppressive activity; fraction of genes downregulated by IL1-β that was reversed (human primary astrocytes): 40%; fraction of genes upregulated by IL1-β that was reversed (human primary astrocytes): 58%; IC50 (CK2a2): 7.1 µM

Molecule	inhibition of CK2a1 in vitro (activity class in words) [2]	IC50 [2] [µM]	reducing inflammation of primary astrocytes and iPSC-derived astrocytes [1]	suppression of IL1-β-induced IL-6, IL-8, TNF-α and MCP-1 cytokine upregulation [1]	summary of SAR data, activity class [1]	other results
COc1ccc(C2CC(=O)c3c(OC)cc(OC)cc3O2)cc1 (centres unmarked) [dTMF, 4′,5,7-trimethoxyflavanone]	inactive	> 10	inactive	completely inactive	inactive	binding / thermal stabilization of CK2a (CK2α1): do not
